Data published in ChEMBL document CHEMBL6087461, “Cell-Permeable Peptide Inhibitors of the p53-hDM2 Interaction via Foldamer Helix Mimicry and Bis-Thioether Stapling” (J Med Chem, 2025).
Activity calls are given as the source filed them. No cut-off for these calls is given here. Starred links: 1 amine or outer side, 2 acyl side, 3 side chain; linkers in the order of their positions; H or OH if unused. Positions of bridges follow the written chain, without caps; N, C: chain ends. Residues, ends and D or L forms follow the SMILES beside them. X1 = CC(C)[C@@H](CNC(N)=O)NC(=O)NC[C@H](C)NC(=O)NC[C@H](CSCCCCCC[*:1])N[*:2]

How the values were obtained:
HCT-116 [1] = assay: Cytotoxicity against human HCT116 cells expressing wild type p53 and overexpressing human DM2 assessed as cell viability measured after 72 hrs incubation by MTS cell viability assay; type: functional, cell-based; details: HCT-116, 72 h
HCT-116 [2] = assay: Effect on increase in p21 RNA level in human HCT-116 cells at 10 uM measured after 6 hrs by RT-qPCR analysis; type: functional, cell-based
[3] = molecular target: Tumour suppressor protein p53/Mdm4 (Homo sapiens, UniProt O15151); assay: PROTAC activity at human DMX/p53 extracted from Escherichia coli interaction by measuring inhibition of interaction by time-resolved fluorescence energy transfer (TRFRET) detection method; type: protein assay
Tumour suppressor protein p53/Mdm4, sequence (P04637 whole entry): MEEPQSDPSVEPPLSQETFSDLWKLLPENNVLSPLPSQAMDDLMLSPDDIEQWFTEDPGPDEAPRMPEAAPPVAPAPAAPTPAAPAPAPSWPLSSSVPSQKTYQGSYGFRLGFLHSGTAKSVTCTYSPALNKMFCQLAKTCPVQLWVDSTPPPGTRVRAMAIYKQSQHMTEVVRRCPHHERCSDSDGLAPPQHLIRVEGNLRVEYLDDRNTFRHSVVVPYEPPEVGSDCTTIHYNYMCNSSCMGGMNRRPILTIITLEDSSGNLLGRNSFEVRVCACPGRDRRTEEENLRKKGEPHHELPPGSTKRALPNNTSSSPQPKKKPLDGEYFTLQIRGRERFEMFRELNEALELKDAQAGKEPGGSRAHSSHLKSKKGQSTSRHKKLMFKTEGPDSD
Tumour suppressor protein p53/Mdm4, sequence (O15151 whole entry): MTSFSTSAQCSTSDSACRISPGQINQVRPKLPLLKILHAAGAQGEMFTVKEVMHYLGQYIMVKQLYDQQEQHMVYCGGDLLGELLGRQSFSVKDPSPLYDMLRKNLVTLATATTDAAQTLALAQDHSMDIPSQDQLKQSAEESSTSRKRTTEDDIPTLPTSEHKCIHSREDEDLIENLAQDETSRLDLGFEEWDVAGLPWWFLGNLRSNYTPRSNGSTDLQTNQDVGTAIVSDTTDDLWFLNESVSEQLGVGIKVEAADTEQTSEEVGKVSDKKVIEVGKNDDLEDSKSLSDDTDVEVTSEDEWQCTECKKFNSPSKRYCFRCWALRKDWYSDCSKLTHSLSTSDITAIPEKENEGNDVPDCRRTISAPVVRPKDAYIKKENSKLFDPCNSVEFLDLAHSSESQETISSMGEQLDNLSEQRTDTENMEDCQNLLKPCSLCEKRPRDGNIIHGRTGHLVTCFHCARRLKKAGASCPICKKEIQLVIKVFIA

SW480 [4] = assay: Cytotoxicity against human SW480 cells expressing p53 mutant and overexpressing human DM2 assessed as cell viability measured after 72 hrs incubation by MTS cell viability assay; type: functional, cell-based
HCT-116 [5] = assay: Effect on increase in […] RNA level in human HCT-116 cells at 10 uM measured after 6 hrs by RT-qPCR analysis; type: functional, cell-based
HCT-116 [6] = assay: Effect on increase in wild type p53 level in human HCT-116 cells at 10 uM measured after 6 hrs by Western blot analysis; type: functional, cell-based
SW480 [7] = assay: Cytotoxicity against human SW480 cells expressing lower level of human DM2 assessed as cell viability measured after 72 hrs incubation by MTS cell viability assay; type: functional, cell-based
MCF7 = assay: Cytotoxicity against human MCF7 cells expressing wild type p53 and overexpressing human DMX assessed as cell viability measured after 72 hrs incubation by MTS cell viability assay; type: functional, cell-based; details: MCF7, 72 h
[8] = PROTAC activity at human DM2/p53 extracted from Escherichia coli interaction by measuring inhibition of interaction by time-resolved fluorescence energy transfer (TRFRET) detection method
HCT-116 [9] = assay: Induction of hDM2 RNA level in human HCT-116 cells expressing wild type p53 measured after 6 hrs by RT-qPCR analysis; type: functional, cell-based; details: dose 0.1-10 µM
HCT-116 [10] = assay: Induction of P21 RNA level in human HCT-116 cells expressing wild type p53 measured after 6 hrs by RT-qPCR analysis; type: functional, cell-based; details: dose 0.1-10 µM
HCT-116 [11] = assay: Cytotoxicity against human HCT-116 cells assessed as cell viability at 0.1 to 40 uM measured after 2 hrs incubation by LDH release assay; type: functional, cell-based; details: dose 0.1-40 µM
HCT-116 [12] = assay: Induction of p53 level in human HCT-116 cells expressing wild type p53 measured after 6 hrs by Western blotting analysis; type: functional, cell-based; details: dose 0.1-40 µM

IC50 [3] | IC50 [8] | SMILES | IC50 (HCT-116 [1]) | Activity (HCT-116 [2]) | Activity (SW480 [4]) | Activity (HCT-116 [5]) | Activity (HCT-116 [6]) | Activity (SW480 [7]) | IC50 (MCF7) | Activity (HCT-116 [9]) | Activity (HCT-116 [10]) | Activity (HCT-116 [11]) | Activity (HCT-116 [12])
22 µM | 0.0046 µM | CC(C)[C@@H](CNC(N)=O)NC(=O)NC[C@H](C)NC(=O)NC[C@@H]1CSCCCCCCSC[C@H](NC(=O)[C@H](Cc2ccccc2)NC(=O)[C@H](CO)NC(=O)[C@H](CCCCN)NC(=O)[C@H](CCCNC(=N)N)NC(=O)[C@H](CCCNC(=N)N)NC(=O)[C@@H](N)CCCNC(=N)N)C(=O)N[C@@H](CCC(=O)O)C(=O)N[C@@H](Cc2ccc(O)cc2)C(=O)N[C@@H](Cc2c[nH]c3ccccc23)C(=O)N1 (H-RRRKSFCEYW; linker 7-C via X1) | 3.86 µM | inactive | Active | inactive | inactive | Active | 3.98 µM | – | – | – | –
73.3 µM | 0.00924 µM | CC(=O)N[C@@H](CCCCN)C(=O)N[C@H](C(=O)N[C@@H](Cc1ccccc1)C(=O)N[C@H]1CSCCCCCCSC[C@@H](CNC(=O)N[C@@H](C)CNC(=O)N[C@H](CNC(N)=O)C(C)C)NC(=O)[C@H](Cc2c[nH]c3ccccc23)NC(=O)[C@H](Cc2ccc(O)cc2)NC(=O)[C@H](CCC(=O)O)NC1=O)[C@@H](C)O (Ac-KTFCEYW; linker 4-C via X1) | – | – | – | – | – | – | – | Dose-dependent-effect | Dose-dependent-effect | Not active; Indicating Absence Of Direct Effect On Cell Membranes | Dose-dependent-effect; Similar To Nutlin-3A
